Tested on: IL-6
Experiment: LPS-induced IL-6 expression in mouse bone marrow-derived dendritic cells, ELISA
Format: cell-based
Conditions: DCs co-treated with LPS and BrDs at 20 μM
Text: For mouse bone marrow-derived DCs (BMDCs), five to six-week-old female C57BL/6JNarl mice were purchased from the National Laboratory Animal Center, Taiwan and kept under SPF conditions. BMDCs were generated from bone marrow cells of C57BL/6 mice as described previously (Yin S Y, Wang W H, Wang B X, Aravindaram K, Hwang P I, Wu H M, Yang N S. BMC genomics 2010, 11:612). In brief, bone marrow was isolated from femurs and tibiae which were then flushed with RPMI-1640 medium using a syringe with a 0.45-mm needle on Day 0. Red blood cells in suspension were lysed for […] with ACK lysing buffer (150 mM NH4Cl, 1.0 mM KHCO3, 0.1 mM EDTA). Bone marrow cells were suspended at a density of 1×10^7 cells/30 ml in RPMI-1640 containing 10% FBS, 2 mM L-glutamine, 1% of nonessential amino acids, 100 U/mL penicillin and 100 μg/mL streptomycin supplemented with 20 ng/mL of mGM-CSF in 15-cm dishes at 37° C. with 5% CO2. On day 2, two-thirds of the medium was removed and 30 mL fresh medium with mGM-CSF was added to the cells. On day 5, culture plates were gently swirled and the floating and loosely adherent cells were discarded. Aliquots of 75% culture media were replenished with 20 ng/mL mGM-CSF and 20 ng/mL mIL-4. On day 7, mouse BMDCs (95% pure CD11b and MHC II) were harvested and incubated in RPMI 1640 medium containing 1 mM sodium pyruvate, 0.1 mM nonessential amino acids, 100 U/ml penicillin, 100 μg/ml streptomycin, and supplemented with 10% fetal bovine serum (Invitrogen, Carlsbad, Calif.) for 24 h at 37° C. with or without test chemicals in the presence or absence of LPS (100 ng/ml).
BMDCs were treated with or without test chemicals in the presence or absence of LPS (100 ng/ml) for 24 h at 37° C. Aliquots of supernatants from DC cultures were assayed for IL-6 and TNF-α using commercial ELISA kits (R&D Systems, Minneapolis, Minn.) following the manufacturer's recommendations.
Several studies have reported that the secretion of specific cytokines, including IL-1β, TNF-α and IL-6 by keratinocytes and various immune cells is involved in cutaneous inflammation (Nestle F O, Di Meglio P, Qin J Z, Nickoloff B J. Nature reviews Immunology 2009, 9:679-691; De Vry C G, Valdez M, Lazarov M, Muhr E, Buelow R, Fong T, Iyer S. J Invest Dermatol 2005, 125:473-481; Cumberbatch M, Dearman R J, Kimber I. Immunology 1996, 87:513-518). In order to investigate the anti-inflammatory effect of BrD1 on cytokine expression, mouse bone marrow-derived dendritic cells were used to evaluate the inhibitory effect of BrD1 on LPS-induced expressions of TNF-α and IL-6. In our time-course study for expression of TNF-α and IL-6, after LPS stimulation, a high expression of TNF-α and IL-6 was maintained at 24 h (FIG. 6A). We therefore chose 24 h as the time point at which to assess the expression of TNF-α and IL-6.

SMILES	inhibition of LPS-induced IL-6 expression (structure-activity relationship)
CCCCC(=O)O[C@H]1C[C@H](OC(C)=O)[C@@]2(C)[C@H]([C@H]1C)[C@H](OC(C)=O)[C@]13O[C@@]1(C)C(=O)O[C@H]3/C=C(/C)C[C@H](OC(=O)CCC)[C@@H]2OC(C)=O [BrD1-5C]	inhibitory activity gradually decreased
CCCCCC(=O)O[C@H]1C[C@H](OC(C)=O)[C@@]2(C)[C@H]([C@H]1C)[C@H](OC(C)=O)[C@]13O[C@@]1(C)C(=O)O[C@H]3/C=C(/C)C[C@H](OC(=O)CCC)[C@@H]2OC(C)=O [BrD1-6C]	inhibitory activity gradually decreased
CCCCCCCCCC(=O)O[C@H]1C[C@H](OC(C)=O)[C@@]2(C)[C@H]([C@H]1C)[C@H](OC(C)=O)[C@]13O[C@@]1(C)C(=O)O[C@H]3/C=C(/C)C[C@H](OC(=O)CCC)[C@@H]2OC(C)=O [BrD1-10C]	inhibitory activity gradually decreased
CCCCCCC(=O)O[C@H]1C[C@H](OC(C)=O)[C@@]2(C)[C@H]([C@H]1C)[C@H](OC(C)=O)[C@]13O[C@@]1(C)C(=O)O[C@H]3/C=C(/C)C[C@H](OC(=O)CCC)[C@@H]2OC(C)=O [BrD1-7C]	inhibitory activity gradually decreased

Source: patent US8530513B1, “Pharmaceutical uses of diterpene excavatolide B from a coral or an analogue thereof” (National Sun Yat-Sen University, priority 2012, dated 2013)
